Converted amounts (≈) assume the structure as drawn.
Key:
[1] = tested on: B. cinerea resistant to diethofencarb (HM-2); assay: greenhouse pot test on tomato, diethofencarb-resistant strain HM-2; assay type: in vivo, Botrytis cinerea
Description: (§1) The B. cinerea strains, which had resistance to carbendazim (HM-1), diethofencarb (HM-2), and iprodione (HM-3) for greenhouse pot studies, were provided by the Institute of Vegetables and Flowers, Chinese Academy of Agricultural Sciences (Beijing, China).
(§2) The experiments were conducted in the greenhouse of the Institute of Vegetables and Flowers, Chinese Academy of Agricultural Sciences. The maximum and minimum temperatures of the greenhouse were 29 °C and 19 °C, respectively, and the average temperature was 24 °C. B. cinerea strains showing resistance to carbendazim, diethofencarb, and iprodione were cultivated on potato dextrose agar (PDA) plates for 4–5 d at room temperature. Tomato seeds (Ziyu) were sown in ceramic pots (300 mm in diameter) containing 0.6 kg of soil sterilized with formaldehyde (4–5 seeds for each pot). When plants were grown to the five-leaf stage, an aqueous solution of 25% L13 WP (at dilution multiples of 1000 and 2000 times) was sprayed preventatively on the plant surface. […] The severity of the disease was assessed according to a nine-grade classification at 7 d after inoculation, by which time the disease in the untreated control had fully developed.

[2] = tested on: B. cinerea resistant to iprodione (HM-3); assay: greenhouse pot test on tomato, iprodione-resistant strain HM-3; assay type: in vivo, Botrytis cinerea
Description: as §1, §2

B. cinerea = tested on: B. cinerea; parameters: method as in PMID 18331796; settings: cited from earlier work
[3] = tested on: intact mycelia of B. cinerea; assay: mycelial respiration (oxygen consumption of intact mycelia); assay type: cell-based, Botrytis cinerea; settings: 25 °C; for R1 (mycelial oxygen uptake post addition of fungicide): R0 173.51; for inhibition at 50 µg/mL / inhibition at 100 µg/mL: Botrytis cinerea, read-out: IR (inhibition of respiration)
Description: Mycelial plugs of B. cinerea from 3 days old colony margins were transferred to conical flasks containing 150 mL of PDA liquid medium for shake culture (25 °C, 150 r/min). After 5 days, mycelia were washed three times with 50 mM potassium phosphate buffer (pH 7.2) and resuspended in 0.1 M phosphate buffer (pH 7.2), containing 2% glucose to afford mycelial suspension at a concentration of 50 mg fresh weight of mycelia per milliliter. The mycelial suspension was treated with 50 and 100 μg/mL of L13 and famoxadone, respectively. All measurements were carried out at 25 ± 1 °C. The ratio of the mycelial oxygen consumption was tested by oxygraphy (DW1, Hansatech Instruments Ltd., England), and the inhibition of respiration was calculated using the following formula:IR = (R0 − R1)/R0 × 100(1)
IR: inhibition of respiration (%); R0, R1: the ratio of mycelial oxygen uptake pre and post addition of fungicides (nmol O2/min/mg mycelia).

[4] = tested on: B. cinerea resistant to carbendazim (HM-1); assay: greenhouse pot test on tomato, carbendazim-resistant strain HM-1; assay type: in vivo, Botrytis cinerea
Description: as §1, §2

B. cinerea hyphae = assay: SEM and TEM of mycelial morphology and ultrastructure; assay type: cell-based, Botrytis cinerea; settings: 3 days
Description: B. cinerea mycelial tips (5 mm) from the margins of the actively growing colony on the PDA medium amended with 0, 50, and 100 μg/mL of L13 were cut down after being cultured for 3 days. Then the mycelial tips were treated with 4% glutaraldehyde at 4 °C, then rinsed with 0.1 M phosphate buffer (pH 7.3) and fixed with 1% w/v osmium tetraoxide solution. After being rinsed with 0.1 M phosphate buffer three times, the mycelium block was dehydrated using a series of acetone solutions in the order of concentration: 30%, 50%, 70%, 80%, 90%, and anhydrous acetone. The processes of drying at a critical point, mounting, and gold spraying were completed at last and examined in a scanning electron microscope (S-3400N, Hitachi, Nissei Sanyo, Tokyo, apan) with an accelerating voltage of 18–20 kV.
The mycelial blocks were prepared according to the method given in Section 2.3. After dehydrating and embedding in Epon 112, thin sections were cut and double-stained with uranyl acetate and lead citrate. The grids were examined with a JEOL-1230 (JEOL, Tokyo, Japan) transmission electron microscope.

[5] = tested on: intact mycelia of B. cinerea; parameters: method as in earlier work; settings: cited from earlier work
rabbits [6] = assay: eye irritation test; assay type: in vivo
Description: (§3) The acute oral and dermal toxicity test on Wistar rats, eye and skin irritation test on rabbits, and Ames mutagenicity test were commissioned by the Institute for the Control of Chemical Toxicity in Tianjin. The bone marrow cell micronucleus assay and testis chromosomal aberration test of mice were commissioned by Tianjin Center for Disease Control and Prevention. All the toxicological tests were carried out according to the Toxicological Test Methods for Pesticide Registration (GB 15670-1995).
(§4) Based on the preliminary experiment, Horn’s method was used to determine the acute oral toxicity of L13. The dosage applied for rats was 464, 1000, 2150, and 4640 mg/kg·BW. For the acute dermal toxicity test, the dosage applied for rats was 2000 mg/kg·BW. For the eye and skin irritation test, rabbits with bodyweight from 2.5 to 3.0 kg were used, and 0.1 and […] of L13 was applied to the eyes and skin, respectively. For the Ames mutagenicity test, 0.05–1.0 mg per dish of L13 was applied, and fenaminosulf (50 μg/dish), 2-aminofluorene (20 μg/dish), and 1,8-dihydroxyanthraquinone (50 μg/dish) were used as the positive controls. For the mouse bone marrow cell micronucleus assay, the dosages applied were 165, 82.5, 41.3, and 8.3 mg/kg·BW, and cyclophosphamide (60 mg/kg·BW) was used as a positive control. […]

Wistar rats = assay: acute oral toxicity; assay type: in vivo
Description: as §3, §4

B. cinerea on tomatoes = assay: field efficacy trials against tomato gray mold; assay type: in vivo, Botrytis cinerea; settings: Yuncheng city; 225 g ai ha^−1; over 2 years
Description: The field efficacy trials of L13 against tomato gray mold were conducted in two locations of Yuncheng, Shanxi Province, and Gaocheng, Hebei Province. The experiments were conducted according to the National Agriculture Industry Standard of “Pesticide-guidelines for the field efficacy trials (I)-Fungicides against gray mold of vegetables” [38]. Tomato Jinpeng No. 1 was used as the experimental cultivar. There were six treatments in each trial, and the area of each plot was 5 × 3 m with four replications (24 plots). When tomato plants were grown to the five-leaf stage, an aqueous solution of L13 50% WP at a rate of 450 and 225 g ai ha^−1 was sprayed onto the plants using a hydraulic knapsack electric sprayer (CD-16B, Chaoda Instrument Co., Ltd., Taizhou, China) with a single cone nozzle operating at a typical working pressure 0.3 MPa. Iprodione 50% WP, or iprodione 25% SC at a rate of 225 and 562.5 g ai ha^−1 were used as positive controls. Three applications were conducted at an interval of 7 d. The disease was assessed according to a nine-grade classification 7 d after the last application.

mutagenesis test = assay: mutagenesis test
Description: as §3, §4

rabbits [7] = assay: skin irritation test; assay type: in vivo
Description: as §3, §4

B. cinerea mycelia = assay: mycelial electrolyte leakage (conductivity of mycelia suspension); assay type: cell-based, Botrytis cinerea; settings: 50 μg/mL; for conductivity of mycelia suspension compared with control mycelia: all treatment times 0-100 h
Description: Mycelial discs (5 mm in diameter) of B. cinerea grown on PDA plates were cut from the colony’s margins and placed in PDA liquid medium with 200 r/min shaking for 3 days. The mycelia in the culture medium were collected and washed three times by sterile distilled water and subsequently, filtered and weighed. A stock solution of L13 and commercial fungicide procymidone as a positive control were diluted with sterile distilled water to 50 μg/mL, respectively. After adding 1.0 g of fresh mycelia into different solutions mentioned above, the conductivities of the solutions were measured using the DDS-11C model conductivity detector at 0, 1, 3, 5, 24, 28, 40, 48, 52, 64, 68, 72, 76, 88, 92, and 100 h after treatment. The experiment was repeated twice with three replicates per treatment.

[8] = dilution multiple 1000, 187.5 g.ai ha^−1

CCOc1ccc(NC(=O)OC(C)C)cc1OCC [diethofencarb, reference compound]
Control Effect ([1]; dilution multiple 1400, 267.9 g.ai ha^−1): 76.36%

CC(C)NC(=O)N1CC(=O)N(c2cc(Cl)cc(Cl)c2)C1=O [iprodione, reference compound]
Control Effect ([2]; dilution multiple 1000, 375 g.ai ha^−1): 2.36%

O=C1CCCCC1S(=O)(=O)Nc1ccc(Cl)cc1C(F)(F)F (stereo not drawn) [L13, N-(2-trifluoromethyl-4-chlorphenyl)-2-oxocyclohexyl sulfonamide]
EC50 against B. cinerea (B. cinerea): 2.12 µg/mL (≈ 5.96 µM)
R1 (mycelial oxygen uptake post addition of fungicide) ([3]; 50 μg/mL): 169.93 nmol O2/g/min
R1 (mycelial oxygen uptake post addition of fungicide) ([3]; 100 μg/mL): 143.48 nmol O2/g/min
inhibition at 50 µg/mL ([3]; 50 μg/mL): 2.15%
inhibition at 100 µg/mL ([3]; 100 μg/mL): 17.4%
Control Effect [4, 8]: 81.36%
Carcinogenesis (carcinogenesis test): Negative
TEM ultrastructure of hyphae (B. cinerea hyphae; PDA with 50 μg/mL): cell wall exhibited a decomposition trend
TEM ultrastructure of hyphae (B. cinerea hyphae; PDA with 100 μg/mL): cell wall decomposition
Control Effect [1, 8]: 92.61%
content of DNA and polysaccharide in intact mycelia [5]: reduce the content of the DNA and polysaccharide
Eye irritation (rabbits [6]): No irritation
Teratogenesis (teratogenesis test): Negative
Acute oral LD50 (Wistar rats; female): 2150 mg/kg·BW
Acute oral LD50 (Wistar rats; male): 1470 mg/kg·BW
control effect against B. cinerea on tomatoes (B. cinerea on tomatoes): 72–76%
Mutagenesis (mutagenesis test): Negative
Control Effect [2, 8]: 78.27%
Skin irritation (rabbits [7]): No irritation
electrolyte leakage compared with positive control (B. cinerea mycelia): more significant electrolyte leakage from hyphae than procymidone
conductivity of mycelia suspension compared with control mycelia (B. cinerea mycelia): greatly increased

CC12CC1(C)C(=O)N(c1cc(Cl)cc(Cl)c1)C2=O (stereo not drawn) [procymidone, reference compound]
EC50 against B. cinerea (B. cinerea): 2.45 µg/mL (≈ 8.62 µM)
conductivity of mycelia suspension compared with control mycelia (B. cinerea mycelia): greatly increased

C[C@@]1(c2ccc(Oc3ccccc3)cc2)OC(=O)N(Nc2ccccc2)C1=O (racemic) [Famoxadone, famoxadone, reference compound]
R1 (mycelial oxygen uptake post addition of fungicide) ([3]; 50 μg/mL): 115.99 nmol O2/g/min
R1 (mycelial oxygen uptake post addition of fungicide) ([3]; 100 μg/mL): 68.79 nmol O2/g/min
inhibition at 50 µg/mL ([3]; 50 μg/mL): 33.2%
inhibition at 100 µg/mL ([3]; 100 μg/mL): 60.4%

COC(=O)Nc1nc2ccccc2[nH]1 [carbendazim, reference compound]
Control Effect ([4]; dilution multiple 500, 750 g.ai ha^−1): 29.00%

Reference: article PMC8836143, “Primary Mode of Action of the Novel Sulfonamide Fungicide against Botrytis cinerea and Field Control Effect on Tomato Gray Mold” (International Journal of Molecular Sciences, 2022)
